The test deals with T1, mitochondrial respiratory chain complex I (CI) (Bos taurus, UniProt P03887+P17694+P42026).
T1 construct: gene NDUFS2; whole CI enzyme immunocaptured from purified bovine heart mitochondria
Kind of test: MitoTox Complex I OXPHOS Activity Microplate Assay (immunocaptured enzyme), dose-response. Type of test: biochemical.

T1 sequence (P17694 34-463): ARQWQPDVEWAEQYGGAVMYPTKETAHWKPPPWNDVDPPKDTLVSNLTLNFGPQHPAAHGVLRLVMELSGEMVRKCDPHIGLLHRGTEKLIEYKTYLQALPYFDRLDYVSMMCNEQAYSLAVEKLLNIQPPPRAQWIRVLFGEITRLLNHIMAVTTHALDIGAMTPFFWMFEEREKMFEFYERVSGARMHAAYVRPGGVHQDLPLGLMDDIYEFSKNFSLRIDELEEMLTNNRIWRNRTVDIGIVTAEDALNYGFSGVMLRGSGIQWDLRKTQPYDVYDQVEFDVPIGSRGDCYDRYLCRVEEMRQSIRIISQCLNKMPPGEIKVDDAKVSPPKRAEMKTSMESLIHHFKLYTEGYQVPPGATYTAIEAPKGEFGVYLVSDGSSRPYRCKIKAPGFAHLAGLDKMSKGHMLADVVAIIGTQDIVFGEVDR
T1 sequence (P42026 38-216): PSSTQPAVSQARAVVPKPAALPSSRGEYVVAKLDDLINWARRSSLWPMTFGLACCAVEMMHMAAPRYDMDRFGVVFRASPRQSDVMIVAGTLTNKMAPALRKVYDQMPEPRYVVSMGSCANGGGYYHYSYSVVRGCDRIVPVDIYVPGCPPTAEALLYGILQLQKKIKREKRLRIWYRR
T1 sequence (P03887 whole entry): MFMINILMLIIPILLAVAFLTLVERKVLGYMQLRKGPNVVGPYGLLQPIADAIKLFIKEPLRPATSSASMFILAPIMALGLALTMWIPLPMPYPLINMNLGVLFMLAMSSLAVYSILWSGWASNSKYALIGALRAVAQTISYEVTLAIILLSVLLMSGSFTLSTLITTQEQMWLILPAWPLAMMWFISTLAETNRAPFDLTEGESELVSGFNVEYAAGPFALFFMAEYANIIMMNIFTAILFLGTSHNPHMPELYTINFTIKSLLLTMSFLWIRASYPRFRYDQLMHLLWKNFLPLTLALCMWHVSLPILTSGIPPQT

`Cc1cc(-c2nc(-c3ccc(OC(F)(F)F)cc3)no2)nn1Cc1ccnc(N2CCN(C3CC3)CC2)c1` [BAY 87-2243] registered an IC50 of roughly 500 nM.

One may read the IC50 as the concentration needed to halve the response being measured. High values mean lower potency, low ones higher potency.

Values taken from publication PMC6404347, “CHCHD4 confers metabolic vulnerabilities to tumour cells through its control of the mitochondrial respiratory chain” (Cancer & Metabolism, 2019).
